{"source": "patent US8524691B2", "about": "“Phosphonated rifamycins and uses thereof for the prevention and treatment of bone and joint infections” (The Medicines Company, priority 2008, dated 2013)", "key": {"[1]": {"system": "S. aureus ATCC 13709^A, Novobiocin and Rifampicin resistant variant", "test": "Antibacterial susceptibility (MIC), NCCLS broth microdilution", "format": "cell-based", "method": "(§1) Susceptibility of S. aureus strains to the known antibiotics and synthesized compounds was determined by following the guidelines set by NCCLS (M26-A). Compounds were diluted two-fold serially in DMSO and transferred to cation-adjusted Mueller Hinton broth (CAMHB; Becton Dickinson). 50 μL of compounds diluted in CAMHB was mixed with 100 μL of bacteria diluted in CAMHB in 96-well microtiter plates. The final concentration of micro-organisms in the assay was 5×10^5c.f.u. per mL and the final concentration of DMSO in the assay was 1.25%. Assays were set up in duplicate and incubated at 37° C. for 18 h. The lowest concentration of compound that inhibited visible growth was reported as the minimum inhibitory concentration (MIC)."}, "S. aureus ATCC 29213": {"system": "S. aureus ATCC 29213", "test": "Antibacterial susceptibility (MIC), NCCLS broth microdilution", "format": "cell-based", "method": "as §1"}, "S. aureus ATCC 13709 [2]": {"system": "S. aureus ATCC 13709", "test": "microbe, parasite or virus in culture", "format": "cell-based", "settings": "for Antibacterial activity (in words, from Table 1): S. aureus MIC", "method": "as §1"}, "S. aureus ATCC 13709 [3]": {"system": "S. aureus ATCC 13709", "test": "microbe, parasite or virus in culture", "format": "cell-based", "method": "as §1\nSusceptibility testing experiments were also carried out in the presence of serum. These experiments were carried out similar to the susceptibility testing with the following modifications. 75 μL of compounds diluted in CAMHB was mixed with 75 μL of bacteria diluted in 100% serum from any given source (commercial pooled mouse serum (MS) and human serum (HS), Equitech-Bio Inc.) or diluted in 8% purified human serum albumin (HSA) (Calbiochem). The final concentration of animal serum in the assay was 50% and the final concentration of purified human serum albumin in the assay was 4%; the concentrations of all other components were identical to those described for susceptibility testing."}, "[4]": {"format": "in vitro ADME", "settings": "for % Conversion (prodrug converted to parent drug after binding to bone): 24 h incubation, 37° C.", "method": "Amounts of parent drug “regenerated” from the phosphonated prodrug were measured as follows. Washed bone powder-bound prodrugs from the above experiment were resuspended in 400 μL PBS+2% DMSO or in 400 μL 50% (v/v in PBS+2% DMSO) human or rat serum. The suspension was incubated overnight at 37° C., centrifuged at 13,000 rpm for 2 min and the supernatant was recovered. The amount of regenerated parent drug in the supernatant was determined by measurements using the microbiological assay that was previously described for the prodrugs themselves. The amount of prodrug was deduced from standard curves of known amounts of parent drug that were used as reference for each experiment. The amount of regenerated drug assessed by this bioassay was corroborated by MIC determination. The percentage of drug regenerated in PBS or serum after the overnight incubation (Table 2) was deduced from the difference between the amount of bound prodrug and the amount of regenerated drug (not shown)."}}, "note": "Where two headings read alike, the source gives them in different places.", "data": [{"smiles": "CO[C@H]1/C=C/O[C@@]2(C)Oc3c(C)c(O)c4c(c3C2=O)C2=NC3(CCN(CC(C)C)CC3)N(C(=O)Oc3ccc(NC(=O)CCC(P(=O)(O)O)P(=O)(O)O)cc3)C2=C(NC(=O)/C(C)=C\\C=C\\[C@H](C)[C@H](O)[C@@H](C)[C@@H](O)[C@@H](C)[C@H](OC(C)=O)[C@@H]1C)C4=O", "note": "[Compound 28]", "values": [{"measurement": "Minimum inhibitory concentration, S. aureus ATCC 13709^A", "setting": "[1]", "value": ">128", "unit": "µg/mL"}, {"measurement": "Minimum inhibitory concentration, S. aureus ATCC 29213", "setting": "S. aureus ATCC 29213; CAMHB, 37° C., 18 h", "value": 0.5, "unit": "µg/mL"}, {"measurement": "Minimum inhibitory concentration, S. aureus ATCC 13709", "setting": "S. aureus ATCC 13709 [2]; CAMHB, 37° C., 18 h", "value": 0.5, "unit": "µg/mL"}, {"measurement": "Antibacterial activity (in words, from Table 1)", "setting": "S. aureus ATCC 13709 [2]", "value": "very low MICs whether in the absence or in the presence of serum"}, {"measurement": "Minimum inhibitory concentration, ATCC 13709 + 50% Human Serum", "setting": "S. aureus ATCC 13709 [3]; 50% Human Serum", "value": 0.25, "unit": "µg/mL"}, {"measurement": "Minimum inhibitory concentration, ATCC 13709 + 50% Mouse Serum", "setting": "S. aureus ATCC 13709 [3]; 50% Mouse Serum", "value": 2, "unit": "µg/mL"}, {"measurement": "Minimum inhibitory concentration, ATCC 13709 + 50% Rat Serum", "setting": "S. aureus ATCC 13709 [3]; 50% Rat Serum", "value": 0.0625, "unit": "µg/mL"}, {"measurement": "Release of parent rifabutin from bone powder-bound prodrug (in words)", "setting": "[4]", "value": "release significant amounts of the parent rifabutin once bound to bone powder, regardless of the presence of serum"}, {"measurement": "% Conversion (prodrug converted to parent drug after binding to bone)", "setting": "[4]; 50% Heat Inactivated Rat Serum", "value": "0.07 ± 0.02", "unit": "%"}, {"measurement": "% Conversion (prodrug converted to parent drug after binding to bone)", "setting": "[4]; 50% Rat Serum", "value": "0.06 ± 0.01", "unit": "%"}, {"measurement": "% Conversion (prodrug converted to parent drug after binding to bone)", "setting": "[4]; PBS", "value": "0.06 ± 0.01", "unit": "%"}]}, {"smiles": "CO[C@H]1/C=C/O[C@@]2(C)Oc3c(C)c(O)c4c(c3C2=O)C2=NC3(CCN(CC(C)C)CC3)NC2=C(NC(=O)/C(C)=C\\C=C\\[C@H](C)[C@H](OC(=O)CN(C)CCOC(=O)CCC(P(=O)(O)O)P(=O)(O)O)[C@@H](C)[C@@H](O)[C@@H](C)[C@H](OC(C)=O)[C@@H]1C)C4=O", "note": "[Compound 36]", "values": [{"measurement": "Minimum inhibitory concentration, S. aureus ATCC 13709^A", "setting": "[1]", "value": ">128", "unit": "µg/mL"}, {"measurement": "Minimum inhibitory concentration, S. aureus ATCC 29213", "setting": "S. aureus ATCC 29213; CAMHB, 37° C., 18 h", "value": 2, "unit": "µg/mL"}, {"measurement": "Minimum inhibitory concentration, S. aureus ATCC 13709", "setting": "S. aureus ATCC 13709 [2]; CAMHB, 37° C., 18 h", "value": 2, "unit": "µg/mL"}, {"measurement": "Minimum inhibitory concentration, ATCC 13709 + 50% Human Serum", "setting": "S. aureus ATCC 13709 [3]; 50% Human Serum", "value": 2, "unit": "µg/mL"}, {"measurement": "Minimum inhibitory concentration, ATCC 13709 + 50% Mouse Serum", "setting": "S. aureus ATCC 13709 [3]; 50% Mouse Serum", "value": 1, "unit": "µg/mL"}, {"measurement": "Minimum inhibitory concentration, ATCC 13709 + 50% Rat Serum", "setting": "S. aureus ATCC 13709 [3]; 50% Rat Serum", "value": 0.0625, "unit": "µg/mL"}, {"measurement": "Serum dependence of antibacterial activity (in words)", "setting": "S. aureus ATCC 13709 [3]; MIC with versus without serum", "value": "significant increase in antibacterial activity in serum"}, {"measurement": "Release of parent rifabutin from bone powder-bound prodrug (in words)", "setting": "[4]", "value": "release significant amounts of the parent rifabutin once bound to bone powder, regardless of the presence of serum"}, {"measurement": "% Conversion (prodrug converted to parent drug after binding to bone)", "setting": "[4]; 50% Heat Inactivated Rat Serum", "value": 0.07, "unit": "%"}, {"measurement": "% Conversion (prodrug converted to parent drug after binding to bone)", "setting": "[4]; 50% Rat Serum", "value": 0.07, "unit": "%"}, {"measurement": "% Conversion (prodrug converted to parent drug after binding to bone)", "setting": "[4]; PBS", "value": 0.07, "unit": "%"}]}, {"smiles": "CCC(=O)Oc1ccc(P(=O)(O)CP(=O)(O)O)cc1C(C)(C)CC(=O)N[C@@H](Cc1ccccc1)C(=O)N(C)CC(=O)O[C@@H]1[C@@H](C)[C@@H](O)[C@@H](C)[C@H](OC(C)=O)[C@H](C)[C@@H](OC)/C=C/O[C@@]2(C)Oc3c(C)c(O)c4c(c3C2=O)C2=NC3(CCN(CC(C)C)CC3)NC2=C(NC(=O)/C(C)=C\\C=C\\[C@@H]1C)C4=O.CCN(CC)CC.CCN(CC)CC", "note": "[Compound 128]", "values": [{"measurement": "Minimum inhibitory concentration, S. aureus ATCC 13709^A", "setting": "[1]", "value": ">128", "unit": "µg/mL"}, {"measurement": "Minimum inhibitory concentration, S. aureus ATCC 29213", "setting": "S. aureus ATCC 29213", "value": ">128", "unit": "µg/mL"}, {"measurement": "Minimum inhibitory concentration, S. aureus ATCC 13709", "setting": "S. aureus ATCC 13709 [2]", "value": ">128", "unit": "µg/mL"}, {"measurement": "Antibacterial activity (in words, from Table 1)", "setting": "S. aureus ATCC 13709 [2]", "value": "near complete loss of activity"}, {"measurement": "Minimum inhibitory concentration, ATCC 13709 + 50% Human Serum", "setting": "S. aureus ATCC 13709 [3]", "value": ">128", "unit": "µg/mL"}, {"measurement": "Minimum inhibitory concentration, ATCC 13709 + 50% Mouse Serum", "setting": "S. aureus ATCC 13709 [3]", "value": ">128", "unit": "µg/mL"}, {"measurement": "Minimum inhibitory concentration, ATCC 13709 + 50% Rat Serum", "setting": "S. aureus ATCC 13709 [3]", "value": ">128", "unit": "µg/mL"}]}, {"smiles": "CCC(=O)Oc1cc(C)c(OCCCCC(P(=O)(O)O)P(=O)(O)O)c(C)c1CCC(=O)N[C@@H](Cc1ccccc1)C(=O)N(C)CC(=O)O[C@@H]1[C@@H](C)[C@@H](O)[C@@H](C)[C@H](OC(C)=O)[C@H](C)[C@@H](OC)/C=C/O[C@@]2(C)Oc3c(C)c(O)c4c(c3C2=O)C2=NC3(CCN(CC(C)C)CC3)NC2=C(NC(=O)/C(C)=C\\C=C\\[C@@H]1C)C4=O.N.N", "note": "[Compound 138]", "values": [{"measurement": "Minimum inhibitory concentration, S. aureus ATCC 13709^A", "setting": "[1]", "value": ">128", "unit": "µg/mL"}, {"measurement": "Minimum inhibitory concentration, S. aureus ATCC 29213", "setting": "S. aureus ATCC 29213", "value": ">128", "unit": "µg/mL"}, {"measurement": "Minimum inhibitory concentration, S. aureus ATCC 13709", "setting": "S. aureus ATCC 13709 [2]", "value": ">128", "unit": "µg/mL"}, {"measurement": "Antibacterial activity (in words, from Table 1)", "setting": "S. aureus ATCC 13709 [2]", "value": "near complete loss of activity"}, {"measurement": "Minimum inhibitory concentration, ATCC 13709 + 50% Human Serum", "setting": "S. aureus ATCC 13709 [3]", "value": ">128", "unit": "µg/mL"}, {"measurement": "Minimum inhibitory concentration, ATCC 13709 + 50% Mouse Serum", "setting": "S. aureus ATCC 13709 [3]", "value": ">128", "unit": "µg/mL"}, {"measurement": "Minimum inhibitory concentration, ATCC 13709 + 50% Rat Serum", "setting": "S. aureus ATCC 13709 [3]", "value": ">128", "unit": "µg/mL"}]}]}
